# Columns and labels:
# Gs protein = assay: Immunoprecipitation/Western blot: Gs protein tyrosine phosphorylation and association with receptors in MC3T3-E1 cells; format: cell-based
# Source text: (§1) Taken into account these considerations and having observed that genetic deletion of OPN inversely influenced response to Gi and Gs stimulation (FIG. 1), it was of interest to examine the effect of OPN on the functional and phosphorylation status of Gs protein and on its interaction with receptors. For this purpose, cells were subjected to isoproterenol and desmopressin in the presence of rOPN or PBS. As expected, response to isoproterenol was higher in rOPN than in PBS-treated cells.
# GsPCR signaling = assay: CDS response to GsPCR stimulation (isoproterenol, desmopressin) in MC3T3-E1 cells; format: cell-based
# Source text: as §1
# Assuming that inhibition of Gi protein and phosphorylation of Gs protein are responsible for the increased GsPCR signaling associated with rOPN, the next experiments aimed to determine the contribution of each parameter. For this purpose, cells were treated with PTX to mimic disruption action of rOPN and compared to cells treated with rOPN alone or in combination with Src inhibitor (PP2) to prevent tyrosine phosphorylation. […] This modest difference was abolished by Src inhibitor (PP2). Similar observations were noted when cells were stimulated with desmopressin.
# GiPCR signaling [1] = assay: CDS (CellKey) functional evaluation of Gi protein-mediated receptor signaling in primary mouse osteoblasts; format: cell-based, mice; conditions: osteoblasts from bipedal CD44 knockout (CD44-/-) mice
# [2] = test system: MOR, LPA1R, MT2R receptors and Gi1, Gi2, Gi3 proteins; assay: Western blot and qPCR for expression of GPCRs and Gi protein isoforms in MC3T3-E1 cells; format: cell-based
# Description: Thermo-Script™ reverse transcriptase (Invitrogen) was used to reverse transcribe mRNA into cDNA ([…] total concentration). Several dilutions were tested to choose the concentration that yielded the most efficient amplification. The human primers used were the following: […]
# Each amplification was performed in duplicate using […] of diluted cDNA, […] of 3 mM primer solution and […] of 2× QuantiTect™ SYBR Green PCR Master Mix (QIAGEN Inc, Ontario, Canada). All reaction mixes were run on Mx3000P™ system from Stratagene (Agilent Technologies Company, La Jolla, Calif.) and analyzed with MxPro™ QPCR Software also from Stratagene. Relative quantification was calculated with the delta CT method using β-actin as the endogenous control.
# Gi proteins isoforms expression levels were determined using Western blot technique. MC3T3-E1 cells were treated with PBS or rOPN 0.5 μg/ml overnight (R&D systems Inc., Minneapolis, USA). These cells were washed with cold PBS 1× then lysed in RIPA buffer (25 mM Tris.Hcl pH7.4, 150 mM NaCl, 1% NP-40, 1% sodium deoxycholate, 0.1% SDS) added with 5 mM NaVO4 and protease inhibitor cocktail (Roche molecular Biochemicals, Mannheim, Germany). Immunoblots were performed with primary antibodies directed specifically against Gi1, Gi2, Gi3, Gs, Phosphoserine, integrin β1 (Santa Cruz Biotechnology, Santa Cruz, Calif.), Mu opioid receptor (MOR) (abcam Toronto, ON, Canada), Lysophosphatidic acid receptor 1 (LPAR1) (assaybiotech Inc., USA), melatonin receptor 2 (MT2) and peroxidase-conjugated secondary antibody. […]
# Given that the level of GPCRs is critical for their signaling, it was of interest to examine whether the defective GiPCR signaling induced by OPN is the consequence of a quantitative reduction of these receptors. For this purpose, MC3T3-E1 cells were treated with PBS or rOPN and the cell lysates were analyzed by Western blot for the expression of three different GPCRs; including mu-opioid (MOR), lysophosphatidic acid type 1 (LPA1R) and melatonin type 2 (MT2R) receptors. […]
# GiPCR signaling [3] = assay: GiPCR signaling after LPA stimulation in osteoblasts of AIS patients (CD44 CT SNP) and healthy controls in the presence of rOPN; format: cell-based, human; conditions: same rOPN treatment
# Description: Next, the effect of the CT SNP on GiPCR signaling was assessed. Osteoblasts from severe AIS patients (who underwent surgery) carrying the CT SNP and osteoblasts from healthy controls with wild type CD44 (CC) were stimulated with LPA in the presence of recombinant OPN (rOPN). The GiPCR defective signaling effect in response to the same rOPN treatment was […] 50% more in mutated CD44 (CT) osteoblasts as compared to in wild type CD44 (CC) osteoblasts (FIG. 9 A). […] The CT mutation in CD44 thus increases the sensitivity of scoliotic patients to the damaging effects of OPN on GiPCR signaling and thereby contributes the more severe phenotype observed in these subjects.
# [4] = test system: Gi proteins with MO, MT2 or β1 integrin receptors; assay: Immunoprecipitation/Western blot: interaction of Gi proteins with GPCR and β1 integrin in MC3T3-E1 cells; format: cell-based
# Description: MC3T3-E1 cells were treated with PBS or rOPN (0.5 μg/ml) then the whole cell proteins (1 mg) were incubated with anti-MOR (Abcam Toronto, ON, Canada), anti-MT2 or anti-[…] (Santa Cruz Biotechnology), plus protein G beads for immunoprecipitation (IP) at 4° C. overnight. Purified proteins were loaded on 10% gel after IP, then, processed for gel transferring to PVDF membrane and 5% BSA blocking. Membranes were exposed to antibodies specific for Gi1, Gi2, Gi3, MOR, MT2 and β1 integrin at 4° C. overnight and, subsequently, treated with secondary antibody at room temperature for 1 h. Bands were visualized using SuperSignal™ chemiluminescent (Pierce, Rockford, Ill.) and quantified by densitometric scanning.
# It is notable that when different receptors signal through the same subfamily of G proteins, they share the same limited pool of G proteins. Therefore, if OPN enhances the recruitment of Gi proteins in the β1 integrin complex, reduction in the amount of Gi proteins in GiPCR complex would be expected. To evaluate this possibility, cells lysates were immunoprecipitated with antibodies against MO, MT2 or β1 integrin receptors, and the presence of Gi proteins in each precipitate was examined by Western blot using antibodies specific for Gi1, Gi2 or Gi3 isoform. […]
# [5] = rOPN-treated vs PBS-treated cells
substance,measurement,setting,value
rOPN: exogenous recombinant osteopontin (R&D systems),presence of Gs proteins in the immunoprecipitates of MT2 and MO receptors,Gs protein; rOPN treatment,enhances
same,Gs protein immunoprecipitates probed with anti-tyrosine antibody,Gs protein; [5],higher intensity
same,response to isoproterenol (similar with desmopressin),GsPCR signaling; rOPN vs PBS-treated cells,higher
same,greater responsiveness to isoproterenol stimulation than PTX-treated cells,GsPCR signaling; rOPN-treated vs PTX-treated cells,30%
same,response to DAMGO and oxymethazolin after rOPN treatment,GiPCR signaling [1],concentration-dependent decrease in response
same,"level of MOR, LPA1R and MT2R receptors","[2]; Western blot, rOPN vs PBS",not modified
same,"quantity of Gi proteins (Gi1, Gi2, Gi3)","[2]; immunoblotting, relative to PBS-treated cells",no significant effect
same,mRNA expression of Gi isoforms,"[2]; qPCR, PBS- vs rOPN-treated cells",no significant difference
same,additional reduction of GiPCR signaling in mutated CD44 (CT) vs wild type CD44 (CC) osteoblasts,GiPCR signaling [3],50%
same,amount of Gi protein isoforms in the β1 integrin precipitates,[4]; following rOPN treatment,elevated
same,relative amount of Gi isoforms immunoprecipitated with MO or MT2 receptor,[4]; [5],reduced
